# Test system: MCH receptors
# Experiment: MCH receptor activity class (method not given)
# Details: class by percent of control at 10^-7 M or IC50
row,SMILES,class
1,CN(C)c1ccnc(N[C@H]2CC[C@@H](NC(=O)/C=C/c3ccccc3[N+](=O)[O-])CC2)n1 [compound 866],3 (Class 3 The value of percent of control at 10^−7 M was more than 60% or the value of IC50 was more than 200 nM.)
2,CN(C)c1ccnc(N[C@H]2CC[C@@H](NC(=O)Cc3cccc(Oc4ccccc4)c3)CC2)n1 [compound 867],3 (Class 3 The value of percent of control at 10^−7 M was more than 60% or the value of IC50 was more than 200 nM.)
3,CN(C)c1ccnc(N[C@H]2CC[C@@H](NC(=O)Cc3ccc(Oc4ccccc4)cc3)CC2)n1 [compound 868],3 (Class 3 The value of percent of control at 10^−7 M was more than 60% or the value of IC50 was more than 200 nM.)
4,"CN(C)c1ccnc(N[C@H]2CC[C@@H](NC(=O)Cc3c(-c4ccccc4)[nH]c4ccccc34)CC2)n1 [compound 869, N-(cis-4-{[4-(dimethylamino)pyrimidin-2-yl]amino}cyclohexyl)-2-(2-phenyl-1H-indol-3-yl)acetamide]",1 (Class 1: The value of percent of control at 10^−7 M was less than 40% or the value of IC50 was less than 50 nM.)
5,CN(C)c1ccnc(N[C@H]2CC[C@@H](NC(=O)c3cccc(Oc4ccccc4)c3)CC2)n1 [compound 871],2 (Class 2: The value of percent of control at 10^−7 M was from 40% to 60% or the value of IC′50 was from 50 nM to 200 nM.)
6,CN(C)c1ccnc(N[C@H]2CC[C@@H](NC(=O)c3ccccc3CCc3ccccc3)CC2)n1 [compound 872],3 (Class 3 The value of percent of control at 10^−7 M was more than 60% or the value of IC50 was more than 200 nM.)
7,CN(C)c1ccnc(N[C@H]2CC[C@@H](NC(=O)c3cccc(C(=O)c4ccccc4)c3)CC2)n1 [compound 873],2 (Class 2: The value of percent of control at 10^−7 M was from 40% to 60% or the value of IC′50 was from 50 nM to 200 nM.)
8,"CCSC(C(=O)N[C@H]1CC[C@@H](Nc2nccc(N(C)C)n2)CC1)(c1ccccc1)c1ccccc1 [compound 874, N-(cis-4-{[4-(dimethylamino)pyrimidin-2-yl]amino}cyclohexyl)-2-(ethylthio)-2,2-diphenylacetamide]",1 (Class 1: The value of percent of control at 10^−7 M was less than 40% or the value of IC50 was less than 50 nM.)
9,CN(C)c1ccnc(N[C@H]2CC[C@@H](NC(=O)c3ccccc3Sc3ccccc3C#N)CC2)n1 [compound 875],3 (Class 3 The value of percent of control at 10^−7 M was more than 60% or the value of IC50 was more than 200 nM.)
10,COc1cc(CC(=O)N[C@H]2CC[C@@H](Nc3nccc(N(C)C)n3)CC2)ccc1OCc1ccccc1 [compound 876],3 (Class 3 The value of percent of control at 10^−7 M was more than 60% or the value of IC50 was more than 200 nM.)
11,"C[C@@H](NC(=O)c1ccccc1C(=O)N[C@H]1CC[C@@H](Nc2nccc(N(C)C)n2)CC1)c1cccc2ccccc12 [compound 877, N-(cis-4-{[4-(dimethylamino)pyrimidin-2-yl]amino}cyclohexyl)-N′-[(1R)-1-(1-naphthyl)ethyl]phthalamide]",2 (Class 2: The value of percent of control at 10^−7 M was from 40% to 60% or the value of IC′50 was from 50 nM to 200 nM.)
12,"C[C@H](C(=O)N[C@H]1CC[C@@H](Nc2nccc(N(C)C)n2)CC1)c1cccc(C(=O)c2ccccc2)c1 [compound 878, (2S)-2-(3-benzoylphenyl)-N-(cis-4-{[4-(dimethylamino)pyrimidin-2-yl]amino}cyclohexyl)propanamide]",2 (Class 2: The value of percent of control at 10^−7 M was from 40% to 60% or the value of IC′50 was from 50 nM to 200 nM.)
13,"C[C@@H](c1ccccc1)N(C(=O)c1ccccc1C(=O)N[C@H]1CC[C@@H](Nc2nccc(N(C)C)n2)CC1)[C@@H](C)c1ccccc1 [compound 879, N′-(cis-4-{[4-(dimethylamino)pyrimidin-2-yl]amino}cyclohexyl)-N,N-bis[(1S)-1-phenylethyl]phthalamide]",1 (Class 1: The value of percent of control at 10^−7 M was less than 40% or the value of IC50 was less than 50 nM.)
14,C[C@H](C(=O)N[C@H]1CC[C@@H](Nc2nccc(N(C)C)n2)CC1)c1ccc(-c2ccccc2)c(F)c1 [compound 880],3 (Class 3 The value of percent of control at 10^−7 M was more than 60% or the value of IC50 was more than 200 nM.)
15,CN(C)c1ccnc(N[C@H]2CC[C@@H](NC(=O)CCC(=O)c3cccs3)CC2)n1 [compound 885],3 (Class 3 The value of percent of control at 10^−7 M was more than 60% or the value of IC50 was more than 200 nM.)
16,CN(C)c1ccnc(N[C@H]2CC[C@@H](NC(=O)CCCc3cccs3)CC2)n1 [compound 886],3 (Class 3 The value of percent of control at 10^−7 M was more than 60% or the value of IC50 was more than 200 nM.)
17,CN(C)c1ccnc(N[C@H]2CC[C@@H](NC(=O)Cc3c[nH]c4ccc(OCc5ccccc5)cc34)CC2)n1 [compound 887],3 (Class 3 The value of percent of control at 10^−7 M was more than 60% or the value of IC50 was more than 200 nM.)

row,SMILES,class
1,CN(C)c1ccnc(N[C@H]2CC[C@@H](NC(=O)c3ccccc3C(=O)c3cccc4ccccc34)CC2)n1 [compound 888],3 (Class 3 The value of percent of control at 10^−7 M was more than 60% or the value of IC50 was more than 200 nM.)
2,"COc1ccc(C(=O)N[C@H]2CC[C@@H](Nc3nccc(N(C)C)n3)CC2)cc1OCc1ccccc1 [compound 889, 3-(benzyloxy)-N-(cis-4-{[4-(dimethylamino)pyrimidin-2-yl]amino}cyclohexyl)-4-methoxybenzamide]",1 (Class 1: The value of percent of control at 10^−7 M was less than 40% or the value of IC50 was less than 50 nM.)
3,"Cc1c(C(=O)N[C@H]2CC[C@@H](Nc3nccc(N(C)C)n3)CC2)cc(-c2ccccc2)n1-c1ccccc1 [compound 890, N-(cis-4-{[4-(dimethylamino)pyrimidin-2-yl]amino}cyclohexyl)-2-methyl-1,5-diphenyl-1H-pyrrole-3-carboxamide]",1 (Class 1: The value of percent of control at 10^−7 M was less than 40% or the value of IC50 was less than 50 nM.)
4,Cc1c(C(=O)N[C@H]2CC[C@@H](Nc3nccc(N(C)C)n3)CC2)cc(-c2ccccc2)n1CCSCc1c(F)cccc1Cl [compound 891],1 (Class 1: The value of percent of control at 10^−7 M was less than 40% or the value of IC50 was less than 50 nM.)
5,CN(C)c1ccnc(N[C@H]2CC[C@@H](NC(=O)c3c4ccccc4cc4ccccc34)CC2)n1 [compound 892],3 (Class 3 The value of percent of control at 10^−7 M was more than 60% or the value of IC50 was more than 200 nM.)
6,"CN(C)c1ccnc(N[C@H]2CC[C@@H](NC(=O)c3ccccc3Oc3ccccc3)CC2)n1 [compound 893, N-(cis-4-{[4-(dimethylamino)pyrimidin-2-yl]amino}cyclohexyl)-2-phenoxybenzamide]",2 (Class 2: The value of percent of control at 10^−7 M was from 40% to 60% or the value of IC′50 was from 50 nM to 200 nM.)
7,CN(C)c1ccnc(N[C@H]2CC[C@@H](NC(=O)c3ccccc3-c3ccccc3)CC2)n1 [compound 894],3 (Class 3 The value of percent of control at 10^−7 M was more than 60% or the value of IC50 was more than 200 nM.)
8,CN(C)c1ccnc(N[C@H]2CC[C@@H](NC(=O)CC(c3ccccc3)c3ccccc3)CC2)n1 [compound 895],3 (Class 3 The value of percent of control at 10^−7 M was more than 60% or the value of IC50 was more than 200 nM.)
9,"CN(C)c1ccnc(N[C@H]2CC[C@@H](NC(=O)c3cc(-c4ccccc4)nc4ccccc34)CC2)n1 [compound 896, N-(cis-4-{[4-(dimethylamino)pyrimidin-2-yl]amino}cyclohexyl)-2-phenylquinoline-4-carboxamide]",2 (Class 2: The value of percent of control at 10^−7 M was from 40% to 60% or the value of IC′50 was from 50 nM to 200 nM.)
10,C[C@H](NC(=O)c1ccccc1C(=O)N[C@H]1CC[C@@H](Nc2nccc(N(C)C)n2)CC1)c1ccccc1 [compound 897],3 (Class 3 The value of percent of control at 10^−7 M was more than 60% or the value of IC50 was more than 200 nM.)
11,Cc1ccc(C(=O)c2ccccc2C(=O)N[C@H]2CC[C@@H](Nc3nccc(N(C)C)n3)CC2)cc1 [compound 898],3 (Class 3 The value of percent of control at 10^−7 M was more than 60% or the value of IC50 was more than 200 nM.)
12,CN(C)c1ccnc(N[C@H]2CC[C@@H](NC(=O)c3ccccc3COc3ccccc3)CC2)n1 [compound 899],3 (Class 3 The value of percent of control at 10^−7 M was more than 60% or the value of IC50 was more than 200 nM.)
13,"CN(C)c1ccnc(N[C@H]2CC[C@@H](NC(=O)Cc3sc(-c4ccccc4)nc3-c3ccc(Cl)cc3)CC2)n1 [compound 900, 2-[4-(4-chlorophenyl)-2-phenyl-1,3-thiazol-5-yl]-N-(cis-4-{[4-(dimethylamino)pyrimidin-2-yl]amino}cyclohexyl)acetamide]",1 (Class 1: The value of percent of control at 10^−7 M was less than 40% or the value of IC50 was less than 50 nM.)
14,"Cc1ccc(S(=O)(=O)n2ccc(C(=O)N[C@H]3CC[C@@H](Nc4nccc(N(C)C)n4)CC3)c2)cc1 [compound 901, N-(cis-4-{[4-(dimethylamino)pyrimidin-2-yl]amino}cyclohexyl)-1-[(4-methylphenyl)sulfonyl]-1H-pyrrole-3-carboxamide]",2 (Class 2: The value of percent of control at 10^−7 M was from 40% to 60% or the value of IC′50 was from 50 nM to 200 nM.)
15,"CN(C)c1ccnc(N[C@H]2CC[C@@H](NC(=O)c3ccc(-c4cccc([N+](=O)[O-])c4)o3)CC2)n1 [compound 902, N-(cis-4-{[4-(dimethylamino)pyrimidin-2-yl]amino}cyclohexyl)-5-(3-nitrophenyl)-2-furamide]",2 (Class 2: The value of percent of control at 10^−7 M was from 40% to 60% or the value of IC′50 was from 50 nM to 200 nM.)
16,CN(C)c1ccnc(N[C@H]2CC[C@@H](NC(=O)c3scc(S(C)(=O)=O)c3Cl)CC2)n1 [compound 903],3 (Class 3 The value of percent of control at 10^−7 M was more than 60% or the value of IC50 was more than 200 nM.)
17,"CSc1sc(C(=O)N[C@H]2CC[C@@H](Nc3nccc(N(C)C)n3)CC2)c(Cl)c1S(=O)(=O)C(C)C [compound 904, 3-chloro-N-(cis-4-{[4-(dimethylamino)pyrimidin-2-yl]amino}cyclohexyl)-4-(isopropylsulfonyl)-5-(methylthio)thiophene-2-carboxamide]",2 (Class 2: The value of percent of control at 10^−7 M was from 40% to 60% or the value of IC′50 was from 50 nM to 200 nM.)
